Experimental data: article PMC4734766, “Pentamidine Is Not a Permeant but a Nanomolar Inhibitor of the Trypanosoma brucei Aquaglyceroporin-2” (PLoS Pathogens, 2016)
Like-named read-outs stand apart in the source and are kept apart here.

Legend:
[1] = biological target: T1, TbAQP3 (Trypanosoma brucei brucei, UniProt Q6ZXT2)
[2] = biological target: T2, TbAQP2 (Trypanosoma brucei brucei, UniProt Q6ZXT3); conditions: pH 5.5
T2 sequence (Q6ZXT3 1-312): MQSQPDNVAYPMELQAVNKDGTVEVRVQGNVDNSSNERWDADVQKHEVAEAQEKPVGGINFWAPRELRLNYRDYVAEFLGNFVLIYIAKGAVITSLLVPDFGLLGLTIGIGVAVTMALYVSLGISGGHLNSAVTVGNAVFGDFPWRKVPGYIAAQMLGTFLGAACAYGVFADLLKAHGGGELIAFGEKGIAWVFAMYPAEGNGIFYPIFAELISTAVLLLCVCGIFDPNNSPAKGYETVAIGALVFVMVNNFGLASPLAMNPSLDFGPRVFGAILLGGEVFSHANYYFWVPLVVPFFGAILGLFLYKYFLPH

[3] = biological target: T2, TbAQP2; assay: cell-based
[4] = biological target: T2, TbAQP2
[5] = biological target: T2, TbAQP2; conditions: not told, pH 7.2
[6] = tested on: other AQPs; conditions: covalent cysteine-modification; cited from earlier work
[7] = cited from earlier work
[8] = tested on: T. brucei expressing mutant TbAQP2 (GFPAQP2 L264R); assay: alamarBlue EC50 assay, aqp2-null strain expressing GFP-TbAQP2 Leu264Arg; conditions: Trypanosoma brucei
Description: Bloodstream-form T. brucei, Lister 427, MiTat 1.2, clone 221a and derivatives were maintained as previously described [2]; 2T1 [1] and aqp2 null strains [2] were also described previously. Strains were transfected using a Nucleofector apparatus (Lonza) in conjunction with cytomix and transformants were selected with hygromycin (2.5 μg ml^–1). ^GFPAQP expression was induced by exposing cells to 1 μg ml^–1 tetracycline for 48 h. EC50 assays were carried out using alamarBlue as described [44, 45].

[9] = tested on: yeast; conditions: cited from earlier work
[10] = biological target: T1, TbAQP3; conditions: up to 500 μM pentamidine added 10 min prior to the assay
[11] = tested on: yeast; assay: Phenotypic yeast growth assay, pentamidine susceptibility on YPG (glycerol) media; assay type: cell-based, Saccharomyces cerevisiae; conditions: pentamidine isethionate 1 or 10 μg ml–1, compared with non-expressing and TbAQP3 expressing cells
[12] = assay type: physicochemical; conditions: prohibits a sufficiently concentrated gradient in the light-scattering assay
Description: Next, we employed a biophysical light-scattering assay for TbAQP2 permeability. We expressed TbAQP2 in a yeast strain that lacks the endogenous aquaglyceroporin (Δfps1), prepared protoplasts, and challenged them by a hypertonic, test solute-containing buffer. In an initial rapid phase, the protoplasts will release water following the outward osmotic gradient and shrink as indicated by an increase in light scattering. In the second slower phase, volume will be regained if the test solute can pass TbAQP2 and enter the protoplasts. […] We used instead two pairs of test solutes, glycerol/3-aminopropane-1,2-diol and urea/formamidine, of which glycerol and urea are established permeants of TbAQP2 [11], whereas the respective partners are bioisosteric nitrogen-derivatives, which are positively charged at neutral pH (Fig 1F). […] Formamidine is too strong a base (pKa 13) to be amenable to deprotonation in aqueous solution. […] The lack of permeability for the charged compounds is not due to molecule size, because formamidine is even smaller than urea. […] We conclude that organic cations fail to traverse the TbAQP2 channel.

[13] = IC50, inhibition of TbAQP2 glycerol permeability

T1 sequence (Q6ZXT2 whole entry): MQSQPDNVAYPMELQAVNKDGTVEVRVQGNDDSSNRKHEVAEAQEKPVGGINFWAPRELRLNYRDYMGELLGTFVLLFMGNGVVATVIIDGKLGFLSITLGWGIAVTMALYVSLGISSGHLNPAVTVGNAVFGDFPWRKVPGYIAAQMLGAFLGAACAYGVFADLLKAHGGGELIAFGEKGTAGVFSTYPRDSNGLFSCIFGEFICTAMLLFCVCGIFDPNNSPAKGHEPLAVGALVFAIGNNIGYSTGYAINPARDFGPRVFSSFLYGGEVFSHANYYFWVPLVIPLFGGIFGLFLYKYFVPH

Structure (SMILES): N [NH4 ^+, ammonium]
- NH4+ uptake on TbAQP3 expression ([1]; pH 5.5, NH4+ as sole nitrogen source, versus cells without ammonium transporter): neither expression of TbAQP2 nor TbAQP3 enhanced the NH4 ^+ uptake
- NH4+ uptake on TbAQP2 expression [2]: neither expression of TbAQP2 nor TbAQP3 enhanced the NH4 ^+ uptake

Structure (SMILES): CCCCCOc1ccc(C(=N)N)cc1 [4-pentoxy-benzamidine]
- IC50 [3, 13]: 87 µM

Structure (SMILES): COc1ccc(C(=N)N)cc1 [4-methoxy-benzamidine]
- inhibition of TbAQP2 (in words) [4]: incapable of inhibiting TbAQP2

Structure (SMILES): CN [methylammonium]
- permeability of TbAQP3 for the positively charged compound form ([1]; 50 mM methylammonium, pH 5.5, yeast survival): impermeable
- permeability of TbAQP2 for the positively charged compound form ([2]; not told): impermeable

Structure (SMILES): NC(N)=O [urea]
- permeability of TbAQP2 for the solute [5]: showed permeability

Structure (SMILES): OCC(O)CO [glycerol]
- permeability of TbAQP2 for the solute [5]: showed permeability

Structure (SMILES): [Cl][Au]([Cl])[Cl].c1cnc2c(c1)ccc1cccnc12 [auphen]
- IC50 [6]: 0.8 µM

Structure (SMILES): CCCOc1ccc(C(=N)N)cc1 [4-propoxy-benzamidine]
- IC50 [3, 13]: 2800 µM
- maximal inhibition of TbAQP2 [4]: 60%

Structure (SMILES): N#Cc1ccc(OCCCCCOc2ccc(C(=N)N)cc2)cc1 [nitrile-pentamidine]
- IC50 [3, 13]: 0.18 µM

Structure (SMILES): N=CN [formamidine]
- permeability of TbAQP2 for the solute [5]: did not pass
- pKa [7]: 13

Structure (SMILES): NCC(O)CO (stereo not shown) [3-aminopropane-1,2-diol]
- permeability of TbAQP2 for the solute [5]: did not pass
- pKa [7]: 9.2

Structure (SMILES): N=C(N)c1ccc(OCCCCCOc2ccc(C(=N)N)cc2)cc1 [pentamidine]
- EC50 [8]: 0.103 µM
- IC50 [3, 13]: 0.13 µM
- IC50 ([3]; IC50, pentamidine inhibition of TbAQP2, pH 2.5): 1.1 µM
- IC50 ([3]; IC50, pentamidine inhibition of TbAQP2, pH 3.5): 0.45 µM
- cytotoxicity to yeast [9]: cytotoxic
- pKa [7]: 12.1
- effect on glycerol permeability of TbAQP3 [10]: unaffected
- block of TbAQP2 glycerol permeability ([4]; not told): fully blocked
- reduced affinity versus pH 7.2 ([4]; pH 2.5): 8 times
- reduced affinity versus pH 7.2 ([4]; pH 3.5): 3 times
- pentamidine susceptibility of yeast on expression of TbAQP2 [11]: did not increase the susceptibility
- solubility [12]: low solubility
